One assay deals with NCI-H1417 cells. In words: In vitro cell inhibition assay - H1417 cell proliferation (CellTiter-Glo). The format is cell-based. In short, it runs like this: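 Cells exposed to 8 compound concentrations (5-fold dilutions) in BEGM with 10% FBS for 7 days at 37° C., 5% CO2. Viable cells measured by CellTiter-Glo luminescence; inhibition versus no-inhibitor and no-cell controls, IC50 fitted.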
A general note: ATP-based viability assays read luminescence as a measure of living cells.

A further assay addresses HDAC1 (Homo sapiens (Human), UniProt Q13547). In words: In vitro enzyme inhibition assay - HDAC (HDAC-Glo I/II), HDAC1. The format is biochemical. As to conditions: read-out: HDAC IC50 (nM) HDAC 1. The protocol: 2. In Vitro Enzyme Inhibition Assay—HDAC
The effect of the compound on the enzymatic activity of pan-HDAC and two isoforms (HDAC1 and HDAC8) was examined using the HDAC-Glo I/II Assay and Screening System assay to assess the level of inhibition of HDAC protease activity and selectivity in each isoform. The proteins and detection reagents were from the HDAC-Glo™ I/II Assay and Screening System (Promega). A 1 mM stock solution of the compound was prepared in DMSO and diluted in a 5-fold gradient to create a series of 8 concentrations, and a specific volume of the highest concentration was diluted 25 times with HDAC Buffer to obtain 4× working solution of the compound. […] The 384-well plate was then read on a multifunctional microplate reader, with the Luminescence channel selected to record Luminescence values (RLU). The inhibition rate was calculated using the following formula: […]
Note: ‘Negative’ refers to the group without the inhibitor; ‘Blank’ refers to the group without the enzyme.
The IC50 value was calculated by fitting the inhibition rate by GraphPad Prism software, employing log (inhibitor) vs. response-Variable Slope (four parameters) model.

The next assay has as its target pan-HDAC. In words: In vitro enzyme inhibition assay - HDAC (HDAC-Glo I/II), pan-HDAC. The format is biochemical. The essentials: (§1)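 Eight compound concentrations (5-fold gradient; 1 mM DMSO stock) were assayed by HDAC-Glo I/II luminescence. IC50 was obtained by four-parameter fitting.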
A further assay deals with HDAC8 (Homo sapiens (Human), UniProt Q9BY41). The experiment in a line: In vitro enzyme inhibition assay - HDAC (HDAC-Glo I/II), HDAC8. The class given is biochemical. The settings on record: read-out: HDAC IC50 (nM) HDAC 8. In short, it runs like this: as §1
HDAC8, sequence (Q9BY41 whole entry): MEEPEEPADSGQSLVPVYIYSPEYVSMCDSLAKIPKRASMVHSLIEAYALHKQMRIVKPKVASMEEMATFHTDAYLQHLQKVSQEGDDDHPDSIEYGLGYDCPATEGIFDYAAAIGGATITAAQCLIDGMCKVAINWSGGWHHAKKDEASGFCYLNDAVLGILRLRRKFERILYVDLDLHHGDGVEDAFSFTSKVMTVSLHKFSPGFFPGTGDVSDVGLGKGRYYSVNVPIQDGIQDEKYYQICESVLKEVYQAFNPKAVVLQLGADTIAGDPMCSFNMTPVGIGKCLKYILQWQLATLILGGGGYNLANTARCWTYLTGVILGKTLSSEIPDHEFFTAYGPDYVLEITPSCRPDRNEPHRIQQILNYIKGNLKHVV
Another assay has as its system NCI-H69 cells. The experiment in a line: In vitro cell inhibition assay - NCI-H69 cell proliferation (CellTiter-Glo). The class given is cell-based. In short, it runs like this: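 Proliferation was assessed after a 7-day compound treatment of cells seeded at 1×10^3 per well. IC50 values came from fitting inhibition rates derived from CellTiter-Glo luminescence.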
For a further assay, the target named is LSD1 (Homo sapiens (Human), UniProt O60341). In words: In vitro enzyme inhibition assay - LSD1 (HTRF). The class given is biochemical. Background: In TR-FRET formats the signal depends on donor and acceptor labels being close together.
The next assay deals with NCI-H526 cells. In words: In vitro cell inhibition assay - NCI-H526 cell proliferation (CellTiter-Glo). The format is cell-based. The settings on record: H526 small cell lung cancer cell proliferation, 5 days. The essentials: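 NCI-H526 cells plated at 1×10^3 per well overnight, then treated with 8 concentrations (5-fold dilutions) in RPMI-640 with 10% FBS for 5 days at 37° C., 5% CO2. Viable cells quantified by CellTiter-Glo luminescence; IC50 fitted from inhibition rates relative to no-inhibitor and no-cell controls.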

For the next assay, the system named is DU145 cells. In words: In vitro cell inhibition assay - DU145 cell proliferation (CellTiter-Glo). The class given is cell-based. The essentials:
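Viability read-out was CellTiter-Glo luminescence after a 6-day, 37° C exposure of DU145 cells (1×10^3/well, 10% FBS RPMI-640) to 8 compound concentrations in 5-fold steps.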

Setting [1] is: Homo sapiens, NCI-H1417, H1417 small cell lung cancer cell proliferation.
Setting [2] is: Homo sapiens, NCI-H69, H69 small cell lung cancer cell proliferation.
[3] abbreviates: H1417 small cell lung cancer cell proliferation.
Setting [4] is: Homo sapiens, DU-145, Du145 prostate cancer cell proliferation.

Counter-ions that a name gives are not always drawn.

HDAC1, sequence (Q13547 whole entry, canonical isoform): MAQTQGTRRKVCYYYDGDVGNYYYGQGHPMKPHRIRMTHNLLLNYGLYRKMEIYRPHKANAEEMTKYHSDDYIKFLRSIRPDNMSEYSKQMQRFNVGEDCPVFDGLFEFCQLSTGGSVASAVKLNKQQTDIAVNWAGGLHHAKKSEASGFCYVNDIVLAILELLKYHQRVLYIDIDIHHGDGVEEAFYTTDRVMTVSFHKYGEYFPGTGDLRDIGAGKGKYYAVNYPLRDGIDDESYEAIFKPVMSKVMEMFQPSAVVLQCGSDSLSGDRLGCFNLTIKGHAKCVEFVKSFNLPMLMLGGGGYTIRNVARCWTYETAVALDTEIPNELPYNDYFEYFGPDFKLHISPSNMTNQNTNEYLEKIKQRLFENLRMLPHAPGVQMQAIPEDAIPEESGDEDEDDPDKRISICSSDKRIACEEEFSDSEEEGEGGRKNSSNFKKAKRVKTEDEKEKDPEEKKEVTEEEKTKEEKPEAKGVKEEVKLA

For orientation: IC50 means the concentration needed to halve the response being measured. In the case of `COc1ccc(-c2c(OCCCCCCC(=O)NO)cc(N3CCC(N)CC3)nc2-c2ccc(C#N)c(F)c2)cc1O` [Example 1, 7-((6-(4-aminopiperidin-1-yl)-2-(4-cyano-3-fluorophenyl)-3-(3-hydroxy-4-methoxyphenyl)pyridin-4-yl)oxy)-N-hydroxyheptanamide hydrochloride], the IC50 came out at 216 nM in the assay with NCI-H1417 cells (setting [1]), 68.1 nM at HDAC1, 17.5 nM on pan-HDAC and 215 nM at HDAC8.
Turning to `COc1ccc(-c2c(OCc3ccc(/C=C/C(=O)NO)cc3)cc(N3CCC(N)CC3)nc2-c2ccc(C#N)c(F)c2)cc1O` [Example 2, (E)-3-(4-(((6-(4-Aminopiperidin-1-yl)-2-(4-cyano-3-fluorophenyl)-3-(3-hydroxy-4-methoxyphenyl)pyridin-4-yl)oxy)methyl)phenyl)-N-hydroxyacrylamide hydrochloride], the concentration for half-maximal inhibition (IC50) worked out at 51.9 nM in the assay on NCI-H1417 cells (setting [1]); 7890 nM in the assay on NCI-H69 cells (setting [2]); 1.58 nM against LSD1; 92.3 nM at HDAC1; 66.9 nM against pan-HDAC; 289 nM on HDAC8.
For the molecule `COc1ccc(-c2c(-c3ccc(C#N)c(F)c3)nc(N3CCC(N)CC3)n3ccnc23)cc1OCCCCCCC(=O)NO` [Example 20, 7-(5-(5-(4-aminopiperidin-1-yl)-7-(4-cyano-3-fluorophenyl)imidazo[1,2-c]pyrimidin-8-yl)-2-methoxyphenoxy)-N-hydroxyheptanamide hydrochloride], the IC50 with NCI-H1417 cells (setting [1]) came out at 845 nM; at LSD1 it was 16.9 nM; on HDAC1, 311 nM; at pan-HDAC it was 96.5 nM; at HDAC8, 446 nM.
In the same order, the values of `N#Cc1ccc(-c2nc(N3CCC(N)CC3)n3ccnc3c2-c2ccc(OCCCCCCC(=O)NO)c(O)c2)cc1F` [Example 21, 7-(4-(5-(4-Aminopiperidin-1-yl)-7-(4-cyano-3-fluorophenyl)imidazo[1,2-c]pyrimidin-8-yl)-2-hydroxyphenoxy)-N-hydroxyheptanamide hydrochloride] are 65 nM, 0.05 nM, 400 nM, 119 nM and 275 nM.
In the same order, the values of `CNC1CCN(c2ncc(-c3ccc(OCCCCCCC(=O)NO)c(O)c3)c(-c3ccc(C#N)c(F)c3)c2C#N)CC1` [Example 24, 7-(4-(5-cyano-4-(4-cyano-3-fluorophenyl)-6-(4-(methylamino)piperidin-1-yl)pyridin-3-yl)-2-hydroxyphenoxy)-N-hydroxyheptanamide hydrochloride] are 42.3 nM, 0.41 nM, 8.28 nM, 5.83 nM and 118 nM.
In the same order, the values of `COc1cc(N2CCC(N)CC2)nc(-c2ccc(C#N)c(F)c2)c1-c1ccc(/C=C/C(=O)NO)c(O)c1` [Example 28, (E)-3-(4-(6-(4-Amino-piperidin-1-yl)-2-(4-cyano-3-fluorophenyl)-4-methoxypyridin-3-yl)-2-hydroxyphenyl)-N-hydroxyacrylamide formate] are 25.5 nM, 0.64 nM, 608 nM, 270 nM and 2330 nM.
Regarding `Cc1ccc(-c2c(-c3ccc(C#N)c(F)c3)nc(N3CCC(NCCCCCCC(=O)NO)CC3)n3ccnc23)cc1O` [Example 34, 7-(1-(7-(4-cyano-3-fluorophenyl)-8-(3-hydroxy-4-methylphenyl)imidazo[1,2-c]pyrimidin-5-yl)piperidin-4-yl)amino)-N-hydroxyheptanamide Hydrochloride], the 50% inhibitory concentration (IC50) in the assay on NCI-H1417 cells (setting [3]) came out at 140 nM; on LSD1, 1.13 nM; on HDAC1, 1060 nM; on pan-HDAC, 552 nM; at HDAC8, 353 nM.
Consider `COc1ccc(-c2cnc(N3CCC(NCc4ccc(/C=C/C(=O)NO)cc4)CC3)cc2-c2ccc(C#N)c(F)c2)cc1O` [Example 80, (E)-3-(4-(((1-(4-(4-cyano-3-fluorophenyl)-5-(3-hydroxy-4-methoxyphenyl)pyridin-2-yl)piperidin-4-yl)amino)methyl)phenyl)-N-hydroxyacrylamide formate], for which the IC50 worked out at 14 nM in the assay with NCI-H1417 cells (setting [1]); 27.8 nM in the assay with NCI-H69 cells (setting [2]); 29.3 nM with NCI-H526 cells (Homo sapiens, NCI-H526, 120 h); 56.5 nM in the assay with DU145 cells (setting [4]); 14.9 nM against pan-HDAC; 165 nM on HDAC8.
As to `COc1ccc(-c2ccc(N3CCC(NCc4ccc(/C=C/C(=O)NO)cc4)CC3)c(C#N)c2-c2ccc(C#N)c(F)c2)cc1O` [Example 84, (E)-3-(4-(((1-(3′,4″-dicyano-3″-fluoro-3-hydroxy-4-methoxy-[1,1′:2′,1″-terphenyl]-4′-yl)piperidin-4-yl)amino)methyl)phenyl)-N-hydroxyacrylamide], the IC50 stood at 4 nM with NCI-H1417 cells (setting [1]); 32.9 nM with NCI-H69 cells (setting [2]); 0.62 nM at LSD1; 68.4 nM in the assay on NCI-H526 cells (Homo sapiens, NCI-H526, 120 h); 116 nM with DU145 cells (setting [4]); 5.45 nM at pan-HDAC. Besides, the half-inhibitory concentration (IC50) at HDAC8 is 73.6 nM.
`COc1cc(-c2cnc(N3CCC(NCc4cnc(/C=C/C(=O)NO)nc4)CC3)c(C#N)c2-c2ccc(C#N)c(F)c2)ccc1O` [Example 96, (E)-3-(5-((1-(3-Cyano-4-(4-cyano-3-fluorophenyl)-5-(4-hydroxy-3-methoxyphenyl)pyridin-2-yl)piperidin-4-yl)amino)methyl) pyrimidin-2-yl)-N-hydroxyacrylamide formate]: the half-maximal inhibitory concentration (IC50) in the assay with NCI-H1417 cells (setting [1]) is 74.2 nM; in the assay on NCI-H69 cells (setting [2]), 101 nM; against LSD1, 39.9 nM; in the assay on NCI-H526 cells (Homo sapiens, NCI-H526, 120 h), 108 nM; in the assay with DU145 cells (setting [4]), 149 nM; against pan-HDAC it was 16.4 nM. Besides, at HDAC8, the IC50 came to 16.3 nM.
For the molecule `COc1ccc(-c2cnc(N3CCC(NCc4ccc(/C=C/C(=O)NO)nc4)CC3)c(C#N)c2-c2ccc(C#N)c(F)c2)cc1O` [Example 117, (E)-3-(5-((1-(3-Cyano-4-(4-cyano-3-fluorophenyl)-5-(3-hydroxy-4-methoxyphenyl)pyridin-2-yl)piperidin-4-yl)amino)methyl) pyridin-2-yl)-N-hydroxyacrylamide formate], the half-inhibitory concentration (IC50) was determined as 1.7 nM in the assay with NCI-H1417 cells (setting [3]); 4.21 nM in the assay with NCI-H69 cells (H69 small cell lung cancer cell proliferation); 0.36 nM at LSD1; 4.54 nM in the assay on NCI-H526 cells; 10.4 nM with DU145 cells (Du145 prostate cancer cell proliferation); 0.8 nM on pan-HDAC. Besides, the IC50 at HDAC8 was 13 nM.
Turning to `COc1ccc(-c2cnc(N3CCC(NCc4ccc5cc(C(=O)NO)sc5c4)CC3)c(C#N)c2-c2ccc(C#N)c(F)c2)cc1O` [Example 126, 6-(1-(3-Cyano-4-(4-cyano-3-fluorophenyl)-5-(3-hydroxy-4-methoxyphenyl)pyridin-2-yl)piperidin-4-yl)amino)methyl)-N-hydroxybenzothio phene-2-carboxamide formate], the half-maximal inhibitory concentration (IC50) was 1.76 nM in the assay on NCI-H1417 cells (setting [1]); 284 nM with NCI-H69 cells (setting [2]); 1.11 nM against LSD1; 280 nM with NCI-H526 cells (Homo sapiens, NCI-H526, 120 h); 715 nM in the assay on DU145 cells (setting [4]); 197 nM on pan-HDAC. Besides, at HDAC8, the IC50 amounted to 132 nM.
Regarding `N#Cc1ccc(-c2c(-c3ccc4cn[nH]c4c3)cnc(N3CCC(NCc4ccc(/C=C/C(=O)NO)cc4)CC3)c2C#N)cc1F` [Example 142, (E)-3-(4-(((1-(3-Cyano-4-(4-cyano-3-fluorophenyl)-5-(1H-indazol-6-yl)pyridin-2-yl)piperidin-4-yl)amino)methyl)phenyl)-N-hydroxyacrylamide formate], the IC50 in the assay with NCI-H1417 cells (setting [1]) amounted to 7.59 nM; with NCI-H69 cells (setting [2]) it was 4.73 nM; against LSD1, 1.8 nM; with NCI-H526 cells (Homo sapiens, NCI-H526, 120 h) it was 4.61 nM; with DU145 cells (setting [4]), 4.24 nM.

Source of the values: patent US20250304549A1, “HYDROXYAMIDE DERIVATIVE AND USE THEREOF” (SICHUAN HUIYU PHARMACEUTICAL CO., LTD., priority 2022, published 2025).
